The fraction unbound is free concentration divided by total concentration. A low value points to little free substance.

Series [1] addresses T1, PERK (Homo sapiens, UniProt Q9NZJ5).
T1 sequence (Q9NZJ5 30-1116): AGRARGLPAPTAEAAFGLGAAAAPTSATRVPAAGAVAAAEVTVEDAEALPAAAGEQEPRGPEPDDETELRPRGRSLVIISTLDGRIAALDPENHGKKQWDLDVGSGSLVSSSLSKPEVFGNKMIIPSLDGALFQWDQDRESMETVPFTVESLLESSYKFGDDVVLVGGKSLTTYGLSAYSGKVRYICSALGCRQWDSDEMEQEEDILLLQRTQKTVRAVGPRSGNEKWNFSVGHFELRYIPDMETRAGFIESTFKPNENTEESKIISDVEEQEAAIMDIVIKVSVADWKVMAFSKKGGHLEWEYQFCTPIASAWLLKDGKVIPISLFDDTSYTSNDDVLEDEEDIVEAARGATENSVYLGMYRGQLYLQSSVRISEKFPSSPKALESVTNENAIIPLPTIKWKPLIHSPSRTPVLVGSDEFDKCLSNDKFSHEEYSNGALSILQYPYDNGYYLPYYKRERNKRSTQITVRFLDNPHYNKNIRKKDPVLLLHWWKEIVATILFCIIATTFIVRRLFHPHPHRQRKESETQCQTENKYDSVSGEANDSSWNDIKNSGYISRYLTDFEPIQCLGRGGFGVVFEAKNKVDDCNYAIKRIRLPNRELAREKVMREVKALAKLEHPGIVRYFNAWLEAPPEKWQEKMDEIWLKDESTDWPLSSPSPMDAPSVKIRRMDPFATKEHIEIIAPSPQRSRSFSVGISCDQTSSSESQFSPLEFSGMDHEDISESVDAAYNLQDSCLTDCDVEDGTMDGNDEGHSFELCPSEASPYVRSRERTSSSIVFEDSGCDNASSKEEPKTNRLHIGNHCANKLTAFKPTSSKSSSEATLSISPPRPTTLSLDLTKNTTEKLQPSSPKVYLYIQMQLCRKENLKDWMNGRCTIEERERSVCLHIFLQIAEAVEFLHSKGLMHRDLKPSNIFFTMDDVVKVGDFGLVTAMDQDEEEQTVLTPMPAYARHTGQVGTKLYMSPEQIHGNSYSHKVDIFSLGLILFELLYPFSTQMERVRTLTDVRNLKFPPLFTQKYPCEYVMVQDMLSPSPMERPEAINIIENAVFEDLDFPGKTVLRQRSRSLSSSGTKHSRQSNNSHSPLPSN
In words: PERK biochemical LanthaScreen TR-FRET assay (GFP-eIF2a phosphorylation). As for the experimental part:
Methods used to evaluate biochemical PERK activity are described and published elsewhere. In brief, biochemical PERK activity is evaluated using a LanthaScreenTM ([…]) TR-FRET assay to detect phosphorylation of a GFP-tagged eIF2a substrate (ThermoFisher). Excitation at […] of a terbium chelate donor fluorophore in an eIF2a antibody results in energy transfer to GFP acceptor fluorophore upon eIF2a phosphorylation by PERK. Reaction buffer was composed of 50 mM HEPES (pH 7.4), 10 mM MgCl2, 1 mM EGTA and 0.01% (v/v) BrijTM-35. Reactions were initiated by the addition of substrate and ATP, followed by incubation for 1 h at RT prior to addition of EDTA and the anti-peIF2a antibody. FRET was measured by an EnVision Plate Reader (PerkinElmer). Data were plotted as percent inhibition along a 10-point 3-fold dilution series of inhibitors. IC50 values were calculated using 4-parameter logistical fitting in XLFit.
The PERK activity of analog I was evaluated using cell-free biochemical assays. In these assays, PERK phosphorylation of eIF2a was assessed using a FRET-based labelled protein assay. Compounds were then evaluated for cellular activity by quantifying inhibition of eIF2a phosphorylation in HEK293 cells treated with the ER inducer tunicamycin [7].
For orientation: TR-FRET usually uses a lanthanide donor and a delayed reading to cut background.

Series [2] is described as follows: Plasma protein binding (RED dialysis), dog. The format is in vitro ADME. To be noted: male, beagle, pH 7.4. The source says: (§1) Verapamil hydrochloride and tamoxifen were obtained from Sigma-Aldrich. […]
(§2) Pooled mixed gender human donor plasma, Sprague Dawley male rat plasma, CD-1 (ICR) male mouse plasma and male beagle dog plasma were obtained from Bioreclamation Inc. (Westbury, NY). Reusable Teflon base plate, RED Device inserts, and BupH Phosphate Buffered Saline packs (0.1 M sodium phosphate and 0.15 M sodium chloride when dissolved in 0.5 L water) were obtained from Thermo Scientific (Waltham, MA). Propranolol was obtained from Sigma-Aldrich (St. Louis, MO). All solvents were obtained from commercial sources and used without further purification.
(§3) Frozen plasma was thawed and the pH of plasma and BupH phosphate buffered saline was adjusted to 7.4 prior to dialysis. Into each well of a reusable Teflon 48-well base plate a RED insert was placed open end up. Ten microliters (10 µL) of the test compound (0.1 mM in acetonitrile/water, 1:1 v/v) was added to 990 µL of plasma to achieve 1 µM final concentration. The spiked plasma (200 µL) was added to the sample chamber, which is indicated by the red retainer ring (donor side). To the other side (receiver side), 350 µL of BupH phosphate buffered saline (pH 7.4) was added. A buffer-to-buffer assay was also performed to measure equilibrium across the membrane in the absence of plasma protein.
(§4) Propranolol was used as a positive control. All samples were prepared in triplicate. The RED device base plate was then sealed and placed in a shaking incubator set to maintain 37°C and 200 rpm for four hours.
(§5) After incubation, 100 µL of each sample was combined with an equal volume of either plasma or buffer, to create a similar matrix for all samples. Blank buffer was added to plasma samples, and vice versa. Samples from the incubation, along with the original compound-spiked plasma samples, were prepared for analysis in the same manner. Protein precipitation by addition of two parts of ice-cold acetonitrile to one part of reaction volume was carried out. To ensure complete protein precipitation samples were sealed and placed overnight at 4°C. The next morning samples were centrifuged at 3,600 rpm for 15 minutes. The supernatants (70 µL) were supplemented with an equal volume of internal standard solution (0.15 µM verapamil in water) and subjected to LC-MS/MS analysis.

The nature of series [3]: Plasma protein binding (RED dialysis), mouse. The format is in vitro ADME. To be noted: male, CD-1 (ICR), pH 7.4.
Source text: as §1, §2, §3, §4, §5

[4] abbreviates: cell-free TR-FRET, GFP-eIF2a substrate, read-out: PERK IC50.

Where two headings read alike, the source gives them in different places. A value given as a limit tells only on which side of the number the result lay.

As for `Cc1cc(NC(=O)[C@H](O)c2cccc(F)c2)ccc1-c1cn(C)c2ncnc(N)c12` [Compound 11, (R)-N-(4-(4-amino-7-methyl-7H-pyrrolo[2,3-d]pyrimidin-5-yl)-3-methylphenyl)-2-(3-fluorophenyl)-2-hydroxy acetamide], the IC50 in series [1] (setting [4]) was 2.2 nM.
Regarding `Cc1nc(N)c2c(-c3ccc(NC(=O)[C@H](O)c4cccc(F)c4)cc3C)cn(C)c2n1` [Compound 24], the IC50 in series [1] (setting [4]) was found to be 20 nM. The fraction unbound at 4 h, 1 µM is 0.03 in series [2] and 0.006 in series [3].
For `Cc1nc(N)c2c(-c3ccc(NC(=O)[C@H](O)c4cccc(C(F)(F)F)c4)cc3C)cn(C)c2n1` [Compound 26] the same measures were 2.8 nM, 0.005 and 0.001.
On to `Cc1nc(N)c2c(-c3ccc(NC(=O)[C@H](O)c4cccc(Cl)c4)cc3C)cn(C)c2n1` [Compound 28], for which, in series [1] (setting [4]), the IC50 came out at 1.8 nM. Further, the fraction unbound at 4 h, 1 µM in series [2] is 0.017; in series [3], less than 0.001.
For `Cc1nc(N)c2c(-c3ccc(NC(=O)[C@H](O)c4cc(F)cc(F)c4)cc3C)cn(C)c2n1` [Compound 38] the same measures were 1.9 nM, 0.016 and 0.008.
With `Cc1nc(N)c2c(-c3ccc(NC(=O)[C@H](O)c4cc(F)cc(C(F)(F)F)c4)cc3C)cn(C)c2n1` [Compound 39], the IC50 in series [1] (setting [4]) came out at 2.6 nM. The fraction unbound at 4 h, 1 µM in series [2] and in series [3] was less than 0.001 in each case.
`Cc1cc(F)cc([C@@H](O)C(=O)Nc2ccc(-c3cn(C)c4nc(C)nc(N)c34)c(C)c2)c1` [Compound 41]: the IC50 in series [1] (setting [4]) is 1.4 nM. Further, the fraction unbound at 4 h, 1 µM in series [2] was 0.012; in series [3], 0.001.
For the compound `Cc1nc(N)c2c(-c3ccc(NC(=O)[C@H](O)c4cccc(Cl)c4)cc3F)cn(C)c2n1` [Compound 48], the IC50 in series [1] (bound stated, read-out: biochemical potency) is less than 5 nM; in series [1] (setting [4]), 1 nM. Further, the fraction unbound at 4 h, 1 µM in series [2] is 0.004; in series [3], 0.002.
In the case of `Cc1nc(N)c2c(-c3ccc(NC(=O)[C@H](O)c4cccc(F)c4)c(F)c3C)cn(C)c2n1` [Compound 65], in series [1] (setting [4]), the IC50 stood at 1.9 nM. Moreover, the results for the fraction unbound at 4 h, 1 µM in series [2] and in series [3] were 0.013 and 0.007, respectively.
For `Cc1nc(N)c2c(-c3cc(F)c(NC(=O)[C@H](O)c4cccc(F)c4)cc3C)cn(C)c2n1` [Compound 66] the same measures were 11 nM, 0.018 and 0.012.
The like results for `Cc1nc(N)c2c(-c3ccc(NC(=O)[C@H](O)c4cccc(F)c4)c(F)c3F)cn(C)c2n1` [Compound 70, (R)-N-(4-(4-amino-2,7-dimethyl-7H-pyrrolo[2,3-d]pyrimidin-5-yl)-2,3-difluorophenyl)-2-(3-fluorophenyl)-2-hydroxyacetamide] were, in that order, 1.5 nM, 0.006 and 0.003.

The record behind these values is paper PMC9611727, “Optimization of a Novel Mandelamide-Derived Pyrrolopyrimidine Series of PERK Inhibitors” (Pharmaceutics, 2022).
